Experimental data: a melting point compilation (Tetko et al.; mined from patent text by program, amines drawn as free bases though some values may be those of a salt)

Row | melting point | Compound
1 | 135 to 137 °C | CCC(Oc1cc(Cl)cc(Cl)c1)C(=O)NCc1ccccc1C (stereo not given)
2 | 59 to 61 °C | O=C1c2ccccc2C(=O)N1CCSCc1ccco1
3 | 115 to 116 °C | NC(=O)Cc1cc(Cl)ccc1[N+](=O)[O-]
4 | 58 to 59 °C | Cc1c(O)cccc1OCc1ccccc1
5 | 135 to 136 °C | Cc1nccn1-c1cccc(Nc2ccc(I)cc2[N+](=O)[O-])c1
6 | 25 to 27 °C | CCOC(=O)CC(=O)CCNC(=O)OCc1ccccc1
7 | 198 °C | CC(C)Cn1c(=O)n(C)c(=O)c2c(Sc3cccs3)c(Cn3cnc4ccccc43)sc21
8 | 234 to 235 °C | CC12CCC3c4cc([N+](=O)[O-])c(OCc5ccccc5)cc4CCC3C1CCC2=O (stereo not given)
9 | 59 to 61 °C | COc1cc(OC)c(OC)c(OC)c1OC
10 | 136 to 137 °C | CCc1ccc2c(c1)CC(=O)N2
11 | 53 to 55 °C | CCCCCCCCCCC(O)C(=O)N[C@@H](CCCC)CCC(=O)O (stereo not given in full)
12 | 251 to 253 °C | COc1ccccc1Nc1ncc(C(=O)O)c(=O)[nH]1
13 | 98 to 100 °C | CC(=O)C(=Cc1ccc([N+](=O)[O-])cc1)CC(=O)OCCC#N
14 | 123 to 124 °C | COC(=O)CCc1oc(-c2ccc3c(c2)OCO3)nc1-c1ccc(Cl)cc1
15 | 186 to 187 °C | CCOC(=O)c1cn(C2CC2)c2c(F)c(-c3cc(C)nc(C)c3)c(F)cc2c1=O
16 | 152 to 153 °C | CC(C)Oc1cc(/C=C/S(=O)(=O)NC(=O)OC(C)(C)C)n(Cc2ccc(Cl)cc2Cl)n1
17 | 207 to 208 °C | CCCc1nc2c(N)nc3cc(Oc4ccccc4[N+](=O)[O-])ccc3c2n1CC(C)C
18 | 167 to 169 °C | O=Cc1cc2c3ccccc3ccc2c2ccccc12
19 | > 250 °C | O=C(C=CC(=O)Nc1ccccc1)NCc1cc(Br)cc2[nH]c(=O)c(=O)[nH]c12
20 | 204 to 205 °C | O=CCC[C@@H]1[C@@H](OCc2ccc(-c3ccccc3)cc2)CO[C@@H]1c1cccnc1
21 | 71 to 72 °C | Cn1ccnc1N=Cc1ccccc1

Row | melting point | Compound
22 | 138 °C | Cc1ccc(S(=O)(=O)N2[C@@H](CCc3nnco3)CC[C@H]2c2ccc(F)cc2)cc1 (racemic)
23 | 154 °C | CS(=O)(=O)Cc1cc(Br)ccc1C(=O)c1cnoc1C1CC1
24 | 176 to 178 °C | NC(=O)C1=NN(c2cccc(COc3ccccc3)c2)C(c2ccccc2F)N1 (stereo not given)
25 | 91 to 93 °C | CN1CCN(c2cc(Cl)cc3c2c(=O)n(Cc2ccccc2Br)c(=O)n3Cc2ccccc2)CC1
26 | 110 to 112 °C | CC(=O)C(=[N+]=[N-])C(=O)CCc1ccc(S(N)(=O)=O)cc1
27 | 97.5 to 102 °C | CCCCCCCCCCCCc1ccccc1CC(O)(SCCC(=O)O)C(N)=O (stereo not given)
28 | 136 to 140 °C | CCOC1CC2(C)C(CCC3C2C(=NO)CC2(C)C3CCC23OCCO3)CC1O (stereo not given)
29 | 193 to 195 °C | COc1cc(-c2cccs2)ccc1C(=O)/C=C/c1ccc(C(=O)O)cc1
30 | 218 to 220 °C | Cc1cc2cc(Nc3ncnc4cc(-c5ccccc5)sc34)ccc2[nH]1
31 | 52 to 54 °C | COc1ccc(C2=NN(SC(C)C)C(=O)C2(SC(C)C)SC(C)C)cc1
32 | 262 °C | COc1ccc2[nH]c3c(C(=O)O)cccc3c2c1
33 | 126 °C | O=Cc1cnc2n1CCc1ccccc1C2=C1CCN(C2CCN(C(=O)c3cc(C(F)(F)F)cc(C(F)(F)F)c3)C(Cc3ccccc3)C2)CC1 (stereo not given)
34 | 102 °C | COc1ccc(-c2nnc(C(=O)N3CC(Oc4ccc(CN5CCC(C)(CO)CC5)cc4)C3)o2)cc1
35 | 115 to 116 °C | CC(C)Oc1ccc(CCCOc2nn(Cc3ccccc3)cc2CC(=O)O)c(Oc2ncc(C(F)(F)F)cc2Cl)c1
36 | 258 to 260 °C | Cc1nc2nc(SCc3ccccc3)nn2c(O)c1Cl
37 | 150 °C | O=C(Nc1ccc(Cl)c(C(F)(F)F)c1)Oc1ccc2c(c1)CCCN2
38 | 96 to 97 °C | CN(C)c1nc(Cl)nc(N2CCOCC2)n1
39 | > 270 °C | CNc1cc2c(c(C)c1F)c(=O)c(C(=O)O)cn2-c1cc(N)c(F)cc1F
40 | 185 to 186 °C | NS(=O)(=O)c1cc(C(=O)O)cc([N+](=O)[O-])c1NC1CCCCC1
41 | 228 to 230 °C | CNc1nc(-c2cncc(Br)c2)c2cc(OC)c(OC)cc2n1
42 | 153 to 155 °C | CC1CCC(NC(=O)NS(=O)(=O)c2ccc(CCNC(=O)N3CC4CCCCC4C3=O)cc2)CC1 (stereo not given)

Row | melting point | Compound
43 | 312 °C | CNc1nc(Br)cn2cc(C(N)=O)nc12
44 | 193 °C | CCCCC1(CC)OCc2c1cnc(C)c2OCC(=O)O (stereo not given)
45 | 258 °C | CC1(O)c2ccccc2COc2ccc(C(=O)O)cc21 (stereo not given)
46 | 110 to 112 °C | O=S(=O)(Cl)c1ccc2scnc2c1
47 | 155 to 158 °C | CCCOc1ccc(S(=O)(=O)N2CCN(CC)CC2)cc1-c1nc2cc3ncn(Cc4ccc(F)cc4)c3cc2c(=O)[nH]1
48 | 125 to 126 °C | Cn1cc(C#N)cc1C=O
49 | 92 to 94 °C | CC(C)=CC(=O)N(C)c1cccc(Br)c1
50 | 149 to 151 °C | COCC1CN(C(=O)c2cc(OC)c(OC)c(OC)c2)CCN1C(=O)c1csc(-c2ccc(OC)c(OC)c2)n1 (stereo not given)
51 | 88 to 90 °C | CCCCCC(=O)n1c(=O)n(-c2ccc(OC)cc2)c(=O)n1C(=O)CCCCC
52 | 154 °C | O=C(Nc1cccc2[nH]ccc12)c1ccccc1OCCN1CCCCC1
53 | > 345 °C | O=C(O)c1ccc(/C=C/c2ccc3c(=O)[nH]ncc3c2)cc1
54 | 97 to 98 °C | CCCN1Cc2cncn2C(c2ccc(C#N)cc2)C1=O (stereo not given)
55 | 66 to 68 °C | CNC(=O)NC(Cc1c[nH]c2ccccc12)C(=O)OCc1cc(C)cc(C)c1 (stereo not given)
56 | 173 to 174 °C | COc1ccc(S(=O)(=O)Nc2ccc(F)cc2Nc2ccccc2)cc1
57 | 142 to 143 °C | N#Cc1ccc([C@H]2[C@@H]3C(=O)N(Cc4ccc5c(c4)OCO5)C(=O)[C@@H]3[C@@H]3CSCN32)cc1 (racemic)
58 | 316 to 318 °C | Cc1nc(-c2c(Cl)cc(C(F)(F)F)cc2Cl)[nH]c1[N+](=O)[O-]
59 | 238 to 239 °C | COc1cc(-c2cnc3[nH]cc(C(=O)C(C)(C)OC)c3n2)cc(OC)c1OC
60 | 73 to 74 °C | CCCCc1nc(-c2ccco2)n[nH]1
61 | 119 to 121 °C | OC(CC1CCN(CC2CC2)CC1)(c1ccc(F)cc1)c1ccc(F)cc1
62 | 85 °C | CC(C)(Oc1ccc(CCC(=O)c2ccc(-c3ccc(C(F)(F)F)cc3)o2)c(Cl)c1Cl)C(=O)O
63 | 180 to 182 °C | OCc1cc(CO)n(C(c2ccccc2)(c2ccccc2)c2ccccc2)n1

Row | Compound | melting point
64 | CS(=O)(=O)OCCN(CCOS(C)(=O)=O)c1cc(C(=O)O)c([N+](=O)[O-])cc1[N+](=O)[O-] | 200 to 210 °C
65 | CC1=C(C(=O)O)C(c2cccc([N+](=O)[O-])c2)NC(=N[N+](=O)[O-])N1 (stereo not given) | 236 to 238 °C
66 | CNC(=O)N1N=C(c2ccc(N)c(C)c2)c2cc(Cl)ccc2C=C1C | 210 to 212 °C
67 | CCCCCC(C)C(C)c1cc(OC)c2c(c1)OC(C)(C)C1=C2CN(C(=N)OC)CC1 (stereo not given) | 134 to 136 °C
68 | COC(=O)COc1cccc2c1c(C(=O)C(N)=O)c(C)n2Cc1ccccc1 | 202 to 215 °C
69 | CN(C)C1(c2ccccc2)CCC(C(O)CN2Cc3ccccc3C2)CC1 (stereo not given) | 130 to 135 °C
70 | Brc1ccc2nc(NC3=NCCN3)[nH]c2c1 | 264 to 266 °C
